Tested on: H. ducreyi
Experiment: growth of H. ducreyi in the presence of sialic acid
Assay type: cell-based, Haemophilus ducreyi
Experimental: H. ducreyi strains were cultured on chocolate agar plates at 35° C. in a 5% CO2 atmosphere as previously described (42). Chocolate agar was supplemented with 1 mM NeuAc (Calbiochem, La Jolla, Calif.) or kanamycin at 20 μg/ml when appropriate. E. coli strains were grown on Luria-Bertani (LB) plates or in LB broth, and were supplemented with kanamycin when appropriate.
In this and previous studies, H. ducreyi were grown on plates containing high levels of sialic acid (22, 50). […] To more quantitatively test whether the presence of high levels of sialic acid affected the growth rate of H. ducreyi, growth curves of H. ducreyi in low (˜0.5 μM, basal level in media) (50), medium (10 μM), and high (1 mM) sialic acid conditions were performed (46). […] Both E. coli and H. influenzae seem to utilize their ability to degrade sialic acid as one mechanism of controlling the intracellular levels of sialic acid (66, 68, 69). As noted above, it is currently unclear if H. ducreyi is able to degrade sialic acid. Another possible mechanism for controlling sialic acid uptake may be through the PBPs. […] Therefore, it is possible that SatA may play an important role in controlling sialic acid uptake in H. ducreyi. One mechanism of control could be that the level of satA expression may be affected by the intracellular levels of sialic acid. […]

CC(=O)N[C@H]1[C@H]([C@H](O)[C@H](O)CO)OC(O)(C(=O)O)C[C@@H]1O (some centres unmarked) [sialic acid, N-acetyl-neuraminic acid]
effect of sialic acid on growth of the bacteria on plates (grown on plates containing high levels of sialic acid): did not seem to affect the growth
growth rate (growth curves) (low (~0.5 μM, basal level in media), medium (10 μM) and high (1 mM) sialic acid): no differences in the growth rates
